According to US20110014178A1 (priority 2002, published 2011):

How the values were obtained:
[1] = molecular target: phospholipase C (alpha toxin produced by Clostridium perfringens) (Clostridium perfringens, UniProt P0C216); settings: cited from earlier work
C. perfringens = assay type: in vivo, broiler chicks; settings: 50 g/t in feed, challenged
Clostridium perfringens = assay type: cell-based; settings: FIC plates

## O=C(O)CN(CCN(CC(=O)O)CC(=O)O)CC(=O)O [EDTA]
[1]
  effect on enzymatic activity of phospholipase C: direct inhibitory effect

## bacitracin methylene disalicylate [BMD]
C. perfringens
  Feed Consum.: 14.000
  Feed Conv.: 1.659
  NE Mort.: 2
  Wt. Gain D 5 to D 14: 0.252 kg
  Wt. Gain D 5 to D 27: 0.946 kg
  Wt. Gain D 14 to D 27: 0.694 kg
C. perfringens; 0 normal, 3 most severe
  Lesion Score (0 to 3) Day 22: 0.0
  Lesion Score (0 to 3) Day 27: 0.3

## lysozyme
[1]
  effect on enzymatic activity of phospholipase C: direct inhibitory effect
Clostridium perfringens; 100 times dilution of overnight culture, no nisin
  lysozyme effective alone: approximately 120 ppm
Clostridium perfringens; in combination with nisin 3 ppm
  lysozyme required to achieve a bactericidal effect: 8 ppm
